For data set [1] the following is noted: for flowability index: Carr method: compressibility, angle of repose, spatula angle, cohesion. The protocol: The flowability index is calculated by the Carr method (R. Carr: Chemical Engineering, Jan. 18, 1965, page 163-168) and takes into account the results of four experimental values: compressibility, angle of repose, spatula angle and cohesion.
The conditions of data set [2]: for packing density: Hosokawa machine, 180 gravity drops.
For data set [3] the following is noted: as indicated in EP 708 103; cited from earlier work.
[4] abbreviates: brick habit versus acicular habit.

Molecules are shown by their SMILES. Where two headings read alike, the source gives them in different places.

With `CCCCC1=NC2(CCCC2)C(=O)N1Cc1ccc(-c2ccccc2-c2nnn[nH]2)cc1` [crystals of irbesartan in acicular form A] [2-n-butyl-4-spirocyclopentane-1-[(2′-(tetrazol-5-yl)biphenyl-4-yl)methyl]-2-imidazolin-5-one, reference compound], in data set [1] (listed as crystals of acicular habit), the flowability index entry was “about 10”. For the same compound, in data set [2] (listed as crystals of the acicular form A), the packing density result is “about 0.35 kg/M^3”. In data set [3], the “stability and hygroscopicity of the crystals” value is given as “stable, non-hygroscopic”.

As for `CCCCC1=NC2(CCCC2)C(=O)N1Cc1ccc(-c2ccccc2-c2nnn[nH]2)cc1` [irbesartan crystals in the brick habit, 2-n-butyl-4-spirocyclopentane-1-[(2′-(tetrazol-5-yl)biphenyl-4-yl)methyl]-2-imidazolin-5-one], in data set [1] (listed as crystals of brick habit), the flowability index entry is reported as “about 30”. Also, the “increase in the flowability index with respect to the acicular habit” value in data set [1] (setting [4]) is 50%. Also, the packing density entry in data set [2] (listed as irbesartan crystals having the new crystal habit) is “about 0.5 kg m^3”. For the same compound, in data set [2] (setting [4]), the “increase in the packing density with respect to the acicular habit” value came to 50%.

(Values after patent US6800761B1, “Form of irbesartan, methods for obtaining said form and pharmaceutical compositions containing same” (Sanofi-Synthelabo, priority 1998, dated 2004).)
